Measurements taken from paper PMC4486055 (Cancer chemotherapy and pharmacology, 2014).
Entries after “also recorded” stand apart in the source; their conditions may differ. Where two headings read alike, the source gives them in different places.

Experiments:
[1] = clinical development; cited from earlier work
Japanese patients = settings: in combination with gemcitabine, bradycardia, hypertension, DLT troponin T increase; cited from earlier work
pChk1ser345 and pH2AX = type: in vivo, human
[2] = system: patients with advanced solid tumors; settings: for Serious AE possibly related to AZD7762: one patient
[3] = Single-dose pharmacokinetics of AZD7762 in plasma and urine
advanced solid tumors = assay: Tumor assessments according to RECIST version 1.0; type: in vivo, human; settings: of 38 evaluable; AZD7762 plus gemcitabine
[4] = AZD7762 6 mg/gemcitabine 750 mg/m^2, 3x/cycle, n=6
[5] = AZD7762 6 mg/gemcitabine 1,000 mg/m^2, 2x/cycle, n=2
[6] = AZD7762 6 mg/gemcitabine 1,000 mg/m^2, 3x/cycle, n=1
[7] = AZD7762 9 mg/gemcitabine 1,000 mg/m^2, n=3
[8] = AZD7762 14 mg/gemcitabine 1,000 mg/m^2, n=6
[9] = AZD7762 21 mg/gemcitabine 1,000 mg/m^2, n=3
[10] = AZD7762 30 mg/gemcitabine 1,000 mg/m^2, n=7
[11] = AZD7762 32 mg/gemcitabine 1,000 mg/m^2, n=6
[12] = AZD7762 40 mg/gemcitabine 1,000 mg/m^2, n=8
[13] = all doses, overall, 11/42 patients
[14] = cycle 0 (AZD7762 alone), 6/42 patients
[15] = cycle 1 onwards, AZD7762 6 mg plus gemcitabine 1,000 mg/m^2, 3x/cycle, n=1

CN[C@@H]1C[C@H]2O[C@@](C)([C@@H]1OC)n1c3ccccc3c3c4c(c5c6ccccc6n2c5c31)C(=O)N[C@H]4O [UCN-01, 7-hydroxyl-staurosporine]
Dose-limiting toxicity [1]: prominent dose-limiting hyperglycemia

NC(=O)Nc1cc(-c2cccc(F)c2)sc1C(=O)N[C@H]1CCCNC1 [AZD7762]
Dose escalation limit due to cardiac AEs (Japanese patients): did not support dose escalation beyond 21 mg
Change in staining of pChk1ser345 and pH2AX (pChk1ser345 and pH2AX; 32 mg cohort, AZD7762 after gemcitabine): small increases in staining
H-scores for both biomarkers (out of 12) (pChk1ser345 and pH2AX; hair follicles from skin biopsies, pChk1ser345 and pH2AX): 0–3
Change in staining of pChk1ser345 and pH2AX (pChk1ser345 and pH2AX; other dose cohorts): no increased staining
Blood ALP increased, number of patients (%) [2, 4]: 0 patients (%)
Constipation, number of patients (%) [2, 4]: 2 (33) patients (%)
Decreased appetite, number of patients (%) [2, 4]: 2 (33) patients (%)
Dehydration, number of patients (%) [2, 4]: 2 (33) patients (%)
Diarrhea, number of patients (%) [2, 4]: 0 patients (%)
Neutropenia/leukopenia, number of patients (%) [2, 4]: 0 patients (%)
Thrombocytopenia, number of patients (%) [2, 4]: 2 (33) patients (%)
Vomiting, number of patients (%) [2, 4]: 2 (33) patients (%)
Decreased appetite, number of patients (%) [2, 5]: 0 patients (%)
Diarrhea, number of patients (%) [2, 5]: 0 patients (%)
Headache, number of patients (%) [2, 5]: 0 patients (%)
Nausea, number of patients (%) [2, 5]: 0 patients (%)
Neutropenia/leukopenia, number of patients (%) [2, 5]: 0 patients (%)
Thrombocytopenia, number of patients (%) [2, 5]: 0 patients (%)
ALT/AST increased, number of patients (%) [2, 6]: 0 patients (%)
Blood ALP increased, number of patients (%) [2, 6]: 0 patients (%)
Constipation, number of patients (%) [2, 6]: 0 patients (%)
Decreased appetite, number of patients (%) [2, 6]: 0 patients (%)
Dehydration, number of patients (%) [2, 6]: 0 patients (%)
Headache, number of patients (%) [2, 6]: 0 patients (%)
Thrombocytopenia, number of patients (%) [2, 6]: 0 patients (%)
ALT/AST increased, number of patients (%) [2, 7]: 0 patients (%)
Anemia/Hb decreased, number of patients (%) [2, 7]: 1 (33) patients (%)
Blood ALP increased, number of patients (%) [2, 7]: 0 patients (%)
Constipation, number of patients (%) [2, 7]: 1 (33) patients (%)
Decreased appetite, number of patients (%) [2, 7]: 0 patients (%)
Dehydration, number of patients (%) [2, 7]: 1 (33) patients (%)
Diarrhea, number of patients (%) [2, 7]: 1 (33) patients (%)
Fatigue, number of patients (%) [2, 7]: 1 (33) patients (%)
Nausea, number of patients (%) [2, 7]: 1 (33) patients (%)
Neutropenia/leukopenia, number of patients (%) [2, 7]: 0 patients (%)
Thrombocytopenia, number of patients (%) [2, 7]: 1 (33) patients (%)
Vomiting, number of patients (%) [2, 7]: 0 patients (%)
ALT/AST increased, number of patients (%) [2, 8]: 0 patients (%)
Anemia/Hb decreased, number of patients (%) [2, 8]: 0 patients (%)
Blood ALP increased, number of patients (%) [2, 8]: 0 patients (%)
Constipation, number of patients (%) [2, 8]: 2 (33) patients (%)
Dehydration, number of patients (%) [2, 8]: 0 patients (%)
Headache, number of patients (%) [2, 8]: 0 patients (%)
Neutropenia/leukopenia, number of patients (%) [2, 8]: 2 (33) patients (%)
ALT/AST increased, number of patients (%) [2, 9]: 0 patients (%)
Anemia/Hb decreased, number of patients (%) [2, 9]: 0 patients (%)
Blood ALP increased, number of patients (%) [2, 9]: 0 patients (%)
Constipation, number of patients (%) [2, 9]: 0 patients (%)
Dehydration, number of patients (%) [2, 9]: 1 (33) patients (%)
Diarrhea, number of patients (%) [2, 9]: 0 patients (%)
Headache, number of patients (%) [2, 9]: 0 patients (%)
Nausea, number of patients (%) [2, 9]: 1 (33) patients (%)
Neutropenia/leukopenia, number of patients (%) [2, 9]: 0 patients (%)
Pyrexia, number of patients (%) [2, 9]: 0 patients (%)
Thrombocytopenia, number of patients (%) [2, 9]: 0 patients (%)
Vomiting, number of patients (%) [2, 9]: 1 (33) patients (%)
Constipation, number of patients (%) [2, 10]: 1 (14) patients (%)
Decreased appetite, number of patients (%) [2, 10]: 0 patients (%)
Dehydration, number of patients (%) [2, 10]: 0 patients (%)
Fatigue, number of patients (%) [2, 10]: 0 patients (%)
Headache, number of patients (%) [2, 10]: 0 patients (%)
Nausea, number of patients (%) [2, 10]: 1 (14) patients (%)
Pyrexia, number of patients (%) [2, 10]: 0 patients (%)
Thrombocytopenia, number of patients (%) [2, 10]: 0 patients (%)
ALT/AST increased, number of patients (%) [2, 11]: 0 patients (%)
Blood ALP increased, number of patients (%) [2, 11]: 0 patients (%)
Constipation, number of patients (%) [2, 11]: 0 patients (%)
Decreased appetite, number of patients (%) [2, 11]: 2 (33) patients (%)
Diarrhea, number of patients (%) [2, 11]: 2 (33) patients (%)
Anemia/Hb decreased, number of patients (%) [2, 12]: 2 (25) patients (%)
Decreased appetite, number of patients (%) [2, 12]: 0 patients (%)
Dehydration, number of patients (%) [2, 12]: 0 patients (%)
Fatigue, number of patients (%) [2, 12]: 2 (25) patients (%)
Headache, number of patients (%) [2, 12]: 0 patients (%)
Nausea, number of patients (%) [2, 12]: 2 (25) patients (%)
Pyrexia, number of patients (%) [2, 12]: 2 (25) patients (%)
Thrombocytopenia, number of patients (%) [2, 12]: 2 (25) patients (%)
ALT/AST increase, patients with AE overall [2, 13]: 26%
Nausea, patients with AE overall [2, 13]: 26%
Pyrexia, patients with AE overall [2, 13]: 26%
Anemia/Hb decrease, patients with AE overall ([2]; all doses, overall, 12/42 patients): 29%
Neutropenia/leukopenia, patients with AE overall ([2]; all doses, overall, 15/42 patients): 36%
Fatigue, patients with AE overall ([2]; all doses, overall, 17/42 patients): 41%
ALT/AST increased, number of patients (%) ([2]; all doses, total n=42): 11 (26) patients (%)
Dehydration, number of patients (%) ([2]; all doses, total n=42): 6 (14) patients (%)
Nausea, number of patients (%) ([2]; all doses, total n=42): 11 (26) patients (%)
Pyrexia, number of patients (%) ([2]; all doses, total n=42): 11 (26) patients (%)
Nausea, patients with AE ([2]; cycle 0 (AZD7762 alone), 5/42 patients): 12%
Fatigue, patients with AE [2, 14]: 14%
Vomiting, patients with AE [2, 14]: 14%
AEs of CTCAE grade ≥3, patients ([2]; cycle 0 (AZD7762 alone), 8/42 patients): 19%
Adverse events grade ≥3, patients ([2]; cycle 0, AZD7762 monotherapy 6 mg (6/750 cohort, 3x/cycle, n=6)): 2 (33) n (%)
Adverse events grade ≥3, patients ([2]; cycle 0, AZD7762 monotherapy 6 mg (6/1,000 cohort, 2x/cycle, n=2)): 0 n (%)
Adverse events grade ≥3, patients ([2]; cycle 0, AZD7762 monotherapy 6 mg (6/1,000 cohort, 3x/cycle, n=1)): 0 n (%)
Adverse events grade ≥3, patients ([2]; cycle 0, AZD7762 monotherapy 9 mg, n=3): 0 n (%)
Adverse events grade ≥3, patients ([2]; cycle 0, AZD7762 monotherapy 14 mg, n=6): 0 n (%)
Adverse events grade ≥3, patients ([2]; cycle 0, AZD7762 monotherapy 21 mg, n=3): 0 n (%)
Adverse events grade ≥3, patients ([2]; cycle 0, AZD7762 monotherapy 30 mg, n=7): 0 n (%)
Adverse events grade ≥3, patients ([2]; cycle 0, AZD7762 monotherapy 32 mg, n=6): 3 (50) n (%)
Grade ≥3 adverse events, term ([2]; cycle 0, AZD7762 monotherapy 32 mg, n=6, n=1 per term unless stated): Hyponatremia Peripheral neuropathy Troponin I increased
Adverse events grade ≥3, patients ([2]; cycle 0, AZD7762 monotherapy 40 mg, n=8): 3 (38) n (%)
Grade ≥3 adverse events, term ([2]; cycle 0, AZD7762 monotherapy 40 mg, n=8, n=1 per term unless stated): Device-related infection Myocardial ischemia Hyperglycemia
AEs of CTCAE grade ≥3, patients ([2]; cycle 1 (AZD7762 in combination with gemcitabine), 22/42 patients): 52%
Non-cardiac dose-limiting toxicity ([2]; cycle 1, one patient at AZD7762 32 mg with gemcitabine 1,000 mg/m^2): grade 3 nausea/vomiting for 2 days
Non-cardiac dose-limiting toxicity ([2]; cycle 1, one patient at AZD7762 40 mg with gemcitabine 1,000 mg/m^2): grade 4 neutropenia complicated by ≥38.5 °C fever for 2 days
Adverse events grade ≥3, patients ([2]; cycle 1 onwards, AZD7762 6 mg plus gemcitabine 750 mg/m^2, 3x/cycle, n=6): 5 (83) n (%)
Adverse events grade ≥3, patients ([2]; cycle 1 onwards, AZD7762 6 mg plus gemcitabine 1,000 mg/m^2, 2x/cycle, n=2): 1 (50) n (%)
Adverse events grade ≥3, patients [2, 15]: 1 (100) n (%)
Grade ≥3 adverse events, term [2, 15]: Neutropenia (n = 2)
Adverse events grade ≥3, patients ([2]; cycle 1 onwards, AZD7762 9 mg plus gemcitabine 1,000 mg/m^2, n=3): 1 (33) n (%)
Grade ≥3 adverse events, term ([2]; cycle 1 onwards, AZD7762 9 mg plus gemcitabine 1,000 mg/m^2, n=3, n=1 per term): Thrombocytopenia
Adverse events grade ≥3, patients ([2]; cycle 1 onwards, AZD7762 14 mg plus gemcitabine 1,000 mg/m^2, n=6): 2 (33) n (%)
Adverse events grade ≥3, patients ([2]; cycle 1 onwards, AZD7762 21 mg plus gemcitabine 1,000 mg/m^2, n=3): 1 (33) n (%)
Grade ≥3 adverse events, term ([2]; cycle 1 onwards, AZD7762 21 mg plus gemcitabine 1,000 mg/m^2, n=3, n=1 per term): Atrial thrombosis Febrile neutropenia
Adverse events grade ≥3, patients ([2]; cycle 1 onwards, AZD7762 30 mg plus gemcitabine 1,000 mg/m^2, n=7): 4 (57) n (%)
Adverse events grade ≥3, patients ([2]; cycle 1 onwards, AZD7762 32 mg plus gemcitabine 1,000 mg/m^2, n=6): 3 (50) n (%)
Grade ≥3 adverse events, term ([2]; cycle 1 onwards, AZD7762 32 mg plus gemcitabine 1,000 mg/m^2, n=6, n=1 per term): Neutropenia Flank pain Nausea Vomiting
Adverse events grade ≥3, patients ([2]; cycle 1 onwards, AZD7762 40 mg plus gemcitabine 1,000 mg/m^2, n=8): 4 (50) n (%)
Adverse events grade ≥3, patients ([2]; cycle 1 onwards, AZD7762 plus gemcitabine, all doses, total n=42): 22 (52) n (%)
Serious AE possibly related to AZD7762 ([2]; AZD7762 30 mg group, also judged causally related to gemcitabine): grade 3 chest pain
Serious AE possibly related to AZD7762 ([2]; AZD7762 40 mg group, also recorded as a DLT): grade 3 myocardial ischemia
Peak plasma concentration ([3]; 30 mg dose): 291 ng/mL
Unchanged drug excreted in the urine ([3]; first 48 h post-dosing, across all dose levels): 11–20%
AZD7762 exposure (Cmax, C24 h, and AUC) versus dose ([3]; over the dose range studied): increased linearly; also recorded: increased in a dose-proportional manner
Best response stable disease for ≥6–<12 weeks, patients (advanced solid tumors): five
Disease progression as best response, patients (advanced solid tumors): 20 patients
Stable disease for ≥12 weeks, patients (advanced solid tumors): four
